Experimental data taken from patent US8598132B2, “Glycosylated indolocarbazoles, method for obtaining same and uses thereof” (Universidad de Oviedo, priority 2008, dated 2013).

Assays:
PDK1 = target: T1, PDK1 (Homo sapiens, UniProt O15530); experiment: LabChip (Caliper) kinase assay, PDK1; type: biochemical; conditions: read-out: remaining kinase activity (in %) / percentage of inhibition; for inhibition at 0.01 µM: compound at 10 nM; for inhibition at 0.1 µM: compound at 100 nM
T1 sequence (O15530 1-556): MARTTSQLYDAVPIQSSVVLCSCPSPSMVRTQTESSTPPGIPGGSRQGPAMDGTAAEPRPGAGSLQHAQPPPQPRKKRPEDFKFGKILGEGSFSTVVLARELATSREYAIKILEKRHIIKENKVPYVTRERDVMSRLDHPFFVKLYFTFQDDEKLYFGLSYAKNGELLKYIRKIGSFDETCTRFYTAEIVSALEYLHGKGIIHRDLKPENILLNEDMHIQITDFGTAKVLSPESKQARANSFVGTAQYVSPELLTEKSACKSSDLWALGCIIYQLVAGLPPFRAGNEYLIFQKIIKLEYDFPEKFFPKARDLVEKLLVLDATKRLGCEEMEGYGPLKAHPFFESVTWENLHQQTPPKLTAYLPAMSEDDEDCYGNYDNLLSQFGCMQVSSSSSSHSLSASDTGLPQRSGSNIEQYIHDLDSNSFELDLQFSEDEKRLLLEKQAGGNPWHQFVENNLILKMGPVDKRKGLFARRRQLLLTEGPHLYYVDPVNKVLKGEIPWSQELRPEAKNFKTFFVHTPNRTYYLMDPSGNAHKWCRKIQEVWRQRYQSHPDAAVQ
Description: (§1) The analysis of kinase activity described here was performed using LabChip (Caliper Life Sciences), specifically the Caliper LC3000 and the EZ Reader II instruments.
(§2) The kinase assay used measures the conversion of a fluorescent peptide (substrate) to a phosphorylated product. The reaction mixture, in a microplate well, is introduced by a capillary in a chip where the non-phosphorylated substrate and the phosphorylated product are separated by […]. The intensity of the fluorescent signal over time is related to the reaction progress. The phosphorylated product migrates quicker than the non-phosphorylated substrate and the signals of the two forms of the peptide appear as differentiated peaks. The Caliper determines the peak height and calculates the ratio of product to the peak sum (P/(P+S)). This value is used to compare wells with compounds and wells with controls and thus determine the % of inhibition for the given product.
(§3) The followings kinases were used for the enzymatic inhibition studies, between brackets the value of the Michaelis-Menten constant, Km, of the ATP (Adenosine triphosphate) for each kinase, in μM: obtained from Carna Biosciences: MAPKAPK2 (4.6), AurA (3.6), AurB (5), PKCζ (3.8), RSK1 (23.3), PRAK (5), Erk1 (33.4), PKD2 (32.1), CK1d (16.3), CHK1 (33), ABL (61.7), FYN (36), LYNa (17), CHK2 (57.8), MET (79.5), LCK (28.5), SRC (38), GSK3β (7.3), Erk2 (62.1), PKACα (1.7), AKT2 (186.1), INSR (871.8), p38a (396.5), AKT1(48), MSK1 (21.2), PKCβ2 (84.8), ROCK2 (3.3), PIM2 (4.9), AMPK (38.6), KDR (164.8), IRAK4 (196.5), SGK1 (121.8), SYK (33.5); obtained from Invitrogen: CDK2 (57.6), BTK (123), HGK (80); obtained from Upstate: MST2 (36.6), PKGα (16), PAK2 (1.9), IGF1R (320), FGFR1 (171), MARK1 (33), CAMK2δ (22.4), c-TAK1 (66), DYRK1a (18.1), CaMK4 (3.9), FLT3 (350), c-Raf (6.2), P70S6K (95).
(§4) The compounds were dissolved in 100% DMSO and were diluted at 25 times the final concentration desired for the assay. In the case of the determination of Cl50, serial dilutions were made to reach eight concentrations and give rise to the inhibition curve. 1 μL of each concentration is transferred, in duplicate to a 384-well microplate. 12 μL of enzymatic buffer is added to each well containing purified kinase (several suppliers as indicated above), 100 mM HEPES, pH 7.5, 1 mM DTT (Calbiochem), 0.002% Brij-35 (Sigma) and also in presence of 10 mM MgCl2 as cofactor, except for INSR and IRAK4 wherein 10 mM MnCl2 is used instead of MgCl2. For the kinases CAMK26 and CAMK4, 1 mM CaCl2 and 6.7 μg/mL of calmodulin are also added. For KDR kinase, 0.05% of the CHAPSO detergent is added. For the c-Raf kinase, 10 mM MnCl2 is added. For PKCβ2 0.02 μg/mL of PS/PMA is added. For PKGα se 10 μM of cGMP (cyclic guanosine monophosphate) is added. The compound and the enzyme are left for 15 minutes preincubation and, then, the following are added to each well: 12 μL of peptide buffer/ATP containing 100 mM HEPES, pH 7.5, 1.5 μM peptide marker with fluorescein (specific for the corresponding kinase), ATP (at concentration KM), and 0.002% Brij-35 to start the reaction. Generally, the reactions are incubated for 1-1.5 h at ambient temperature to obtain an adequate conversion (15-40%) of the peptide to the phosphorylated product. The reactions were ended by the addition of 45 μL of buffer containing 0 mM EDTA. The microplates were read by the LabChip 3000 using a 12-channel LabChip. The P/(P+S) values were obtained as described above and the CI50 curves were generated using XIfit.
For example, the activity of the Dyrk1a kinase is inhibited in 87% by the compound of formula (III) and completely by the compound of formula (XII) when used at a concentration of 10 nM.

HGK = target: T2, HGK (Homo sapiens, UniProt O95819); experiment: LabChip (Caliper) kinase assay, HGK; type: biochemical; conditions: for inhibition at 0.01 µM: compound at 10 nM; for inhibition at 0.01 µM / inhibition at 0.1 µM: read-out: remaining kinase activity (in %) / percentage of inhibition; for inhibition at 0.1 µM: compound at 100 nM; for IC50: ATP at Km, read-out: CI50 (the source's name)
T2 construct: purchased Invitrogen
Description: as §1, §2, §3, §4
Table 9a has the 0150 data obtained in pairs of compound-kinase selected from the compounds of formula (VII), (VIII), (IX), (XVI), (XVII) and (XVIII) after taking inhibition measurements at 100 nM and 10 nM. Those couples that provide >70% of inhibition at 10 nM were consider for measuring its IC50. […]

T2 sequence (O95819 whole entry, species assumed): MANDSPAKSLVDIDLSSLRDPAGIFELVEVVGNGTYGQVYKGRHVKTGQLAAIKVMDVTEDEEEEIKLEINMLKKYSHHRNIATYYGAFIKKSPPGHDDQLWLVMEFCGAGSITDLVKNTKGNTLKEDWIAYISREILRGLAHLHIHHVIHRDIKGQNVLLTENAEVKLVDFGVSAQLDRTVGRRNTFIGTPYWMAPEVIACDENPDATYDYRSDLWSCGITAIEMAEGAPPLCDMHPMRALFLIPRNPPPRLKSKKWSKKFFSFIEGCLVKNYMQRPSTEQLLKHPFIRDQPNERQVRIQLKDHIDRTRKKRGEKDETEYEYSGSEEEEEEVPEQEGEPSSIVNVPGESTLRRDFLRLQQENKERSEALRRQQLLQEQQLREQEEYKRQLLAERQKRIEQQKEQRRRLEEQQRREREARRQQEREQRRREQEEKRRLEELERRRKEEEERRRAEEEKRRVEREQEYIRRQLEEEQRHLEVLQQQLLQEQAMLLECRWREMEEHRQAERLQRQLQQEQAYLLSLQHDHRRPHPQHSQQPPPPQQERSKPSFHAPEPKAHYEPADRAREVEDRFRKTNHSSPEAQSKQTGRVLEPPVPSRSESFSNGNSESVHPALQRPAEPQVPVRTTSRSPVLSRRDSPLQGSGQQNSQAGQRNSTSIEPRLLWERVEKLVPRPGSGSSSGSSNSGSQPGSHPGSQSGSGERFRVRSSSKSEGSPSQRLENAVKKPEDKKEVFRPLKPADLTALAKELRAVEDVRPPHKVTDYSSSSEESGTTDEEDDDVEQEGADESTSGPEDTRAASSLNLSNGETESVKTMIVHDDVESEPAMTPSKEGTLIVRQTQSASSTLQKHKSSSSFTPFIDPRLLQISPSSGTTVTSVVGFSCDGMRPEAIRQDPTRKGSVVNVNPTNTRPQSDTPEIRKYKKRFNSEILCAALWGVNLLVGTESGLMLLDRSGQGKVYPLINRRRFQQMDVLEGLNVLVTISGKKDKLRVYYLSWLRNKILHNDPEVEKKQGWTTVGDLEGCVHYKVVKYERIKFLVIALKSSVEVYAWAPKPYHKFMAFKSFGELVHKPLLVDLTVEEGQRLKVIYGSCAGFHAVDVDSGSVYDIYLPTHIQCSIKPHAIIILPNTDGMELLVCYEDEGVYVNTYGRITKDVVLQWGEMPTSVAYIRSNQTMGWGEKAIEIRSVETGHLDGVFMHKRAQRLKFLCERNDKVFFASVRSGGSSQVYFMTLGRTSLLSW

SMILES | inhibition at 0.01 µM (PDK1) [%] | inhibition at 0.1 µM (PDK1) [%] | inhibition at 0.01 µM (HGK) [%] | inhibition at 0.1 µM (HGK) [%] | IC50 (HGK) [nM]
C[C@@H]1O[C@@H](n2c3ccccc3c3c4c(c5c6ccccc6[nH]c5c32)CNC4=O)[C@H](O)[C@H](O)[C@H]1O [formula (XII), N^13-1′-β-L-rhamnosyl-k252c] | -10 | 15 | 44 | 91 | 
C[C@@H]1O[C@@H](n2c3ccccc3c3c4c(c5c6ccccc6[nH]c5c32)C(=O)NC4=O)C[C@H](O)[C@H]1O [formula (IV), N^13-1′-β-L-olivosylarcyriaflavin] | 7 | 71 | 9 | 62 | 
C[C@H]1O[C@@H](n2c3ccccc3c3c4c(c5c6ccccc6[nH]c5c32)C(=O)NC4=O)C[C@@H](O)[C@@H]1O [formula (VI), N^13-1′-β-D-olivosylarcyriaflavin] | 21 | 76 | 35 | 83 | 
C[C@@H]1O[C@@H](n2c3ccccc3c3c4c(c5c6ccccc6[nH]c5c32)C(=O)NC4=O)C[C@@H](O)[C@H]1O [formula (V), N^13-1′-β-L-digitoxosylarcyriaflavin] | 61 | 97 | 54 | 90 | 
C[C@]12O[C@H](C[C@@H](O)[C@H]1O)n1c3ccccc3c3c4c(c5c6ccccc6n2c5c31)CNC4=O [formula (XVIII), N^12-5′(S)-N^13-1′-(R)-L-digitoxosyl-k252c] |  |  |  |  | > 10
C[C@]12O[C@H]([C@H](O)[C@H](O)[C@H]1O)n1c3ccccc3c3c4c(c5c6ccccc6n2c5c31)C(=O)NC4=O [formula (VII), N^12-5′(S)-N^13-1′-(R)-L-rhamnosylarcyriaflavin] |  |  |  |  | 0.78
C[C@@H]1O[C@@H](n2c3ccccc3c3c4c(c5c6ccccc6[nH]c5c32)C(=O)NC4=O)[C@H](O)[C@H](O)[C@H]1O [formula (III), N^13-1′-β-L-rhamnosylarcyriaflavin] | -6 | 46 | 30 | 89 | 
C[C@@H]1O[C@@H](n2c3ccccc3c3c4c(c5c6ccccc6[nH]c5c32)CNC4=O)C[C@@H](O)[C@H]1O [formula (XIV), N^13-1′-β-L-digitoxosyl-k252c] | 30 | 94 | 20 | 78 | 
C[C@H]1O[C@@H](n2c3ccccc3c3c4c(c5c6ccccc6[nH]c5c32)CNC4=O)C[C@@H](O)[C@@H]1O [formula (XV), N^13-1′-β-D-olivosyl-k252c] | 3 | 81 | 36 | 89 | 
C[C@@H]1O[C@@H](n2c3ccccc3c3c4c(c5c6ccccc6[nH]c5c32)CNC4=O)C[C@H](O)[C@H]1O [formula (XIII), N^13-1′-β-L-olivosyl-k252c] | 9 | 81 | 16 | 76 | 
C[C@]12O[C@H](C[C@@H](O)[C@H]1O)n1c3ccccc3c3c4c(c5c6ccccc6n2c5c31)C(=O)NC4=O [formula (IX), N^12-5′(S)-N^13-1′-(R)-L-digitoxosylarcyriaflavin] |  |  |  |  | > 10
